row,melting point [°C],Structure (SMILES)
1,71,COC(=O)CCCc1cc2nc(Cl)ccc2n1S(=O)(=O)c1cccc2nccnc12
2,179 to 180,COc1cc(O)c2c(=O)c(OC)c(-c3ccc(OC(=O)C(O)C(O)C(=O)O)c(OC)c3)oc2c1 (centres undefined)
3,162 to 164,Clc1cccc(Cl)c1C1CCN(Cc2[nH]c3ccccc3c2-c2ccccc2)CC1
4,122 to 124,O=C(NCc1ccccc1Cl)c1cccnc1Oc1ccc(F)cc1F
5,231 to 234,CCOC(=O)c1ccc(-c2cc3c(NCCCN4CCOCC4)ncnc3[nH]2)cc1
6,198 to 203,Cn1ccc2cc(N3Cc4c(N)cccc4C3=O)ccc21
7,87 to 89,Cc1c(C(=O)OC(C)C)sc(C(=O)OC(C)C)c1O
8,145 to 147,CCn1cc(Br)nc(S(=O)(=O)Cc2ccc(Cl)cc2)c1=O
9,98 to 101,CCOC(=O)COc1cc(-n2c(=O)cc(C(F)(F)F)n(C)c2=O)c(F)cc1Cl
10,121 to 123,CCCCCNC(=O)[C@H](Cc1ccc(OCC(=O)O)c(-c2nn[nH]n2)c1)NC(=O)[C@H](Cc1ccccc1)NC(=O)OC(C)(C)C
11,> 270,CCn1c(=O)c2[nH]c(/C=C/c3ccc(OC)c(F)c3)nc2n(CC)c1=O
12,41 to 43,COc1ccc2cc([C@H](C)C(=O)OCC(=O)N(C)CC(=O)OCCCO)ccc2c1
13,141 to 142,CCCn1c(=O)c2[nH]c([C@@H](C)Cc3ccccc3)nc2n(CCC)c1=O
14,167 to 170,O=C(Nc1n[nH]c(=S)s1)NC(Cc1ccccc1)C(=O)NCc1ccccc1 (centres undefined)
15,220 to 223,CCOc1ncc(C(C)=O)cc1C(=O)Nc1c(C(N)=O)nn(C2CN(C(=O)OC(C)(C)C)C2)c1CC
16,127 to 128,CN(C(=O)c1cccc(S(=O)(=O)N(C)c2ccc(Br)cc2)c1)c1ccc(Cl)cc1F
17,214 to 216,COc1cc(C(F)(F)F)cc(OC)c1-c1csc(NC(=O)c2cc3ccccc3n2CC(=O)OC(C)(C)C)n1
18,99 to 101,COC(=O)c1ccc(OC2CCOC2=O)c([N+](=O)[O-])c1 (centres undefined)
19,106 to 108,Cn1nc(Oc2ccc(Cl)c(O)c2)c(Cl)c1C(F)(F)F
20,130,COc1cc(C(CCl)(OC)OC)ccc1OS(=O)(=O)c1ccccc1
21,117 to 119,COc1cc(C)c2c(Oc3cccc(C(F)(F)F)c3)c(OC)cc(NC(C)CCCN3C(=O)c4ccccc4C3=O)c2n1 (centres undefined)
22,171,COc1ccc(C(=O)N(C(=O)c2ccc(OC)cc2)c2nc3ccc(N(C)C)cc3c(NCc3cccs3)c2C#N)cc1
23,39 to 41,O=C(c1ccccc1)C(O)CC(Cl)CCCl (centres undefined)
24,185 to 186,Cc1c(Cc2ccc(C(C)C)cc2)c2c(c(C)c1NC(=O)CC(C)(C)C)C(C)CO2 (centres undefined)
25,147 to 149,COC(=O)CC(O)(c1ccccc1)c1ccc2nc(N)n(S(=O)(=O)C(C)C)c2c1 (centres undefined)
26,170 to 173,O=C(c1ccc(Br)cc1)N1CCN(CCCN2CCN(C(=O)c3ccc(Br)cc3)CC2)CC1

row,melting point [°C],Structure (SMILES)
1,179 to 180,COc1cc(C)c(C=CC=CC=C(C)C(=O)O)c(C)c1C
2,189 to 191,COc1cnc(CSc2nc3cc4c(cc3[nH]2)OC(F)(F)O4)cc1OC
3,176 to 178,NCCn1nc2c3c(c(Cl)ccc31)C(=O)c1c(OCc3ccccc3)ccc(OCc3ccccc3)c1-2
4,> 220,CCc1nn2c(N)cc(Cl)nc2c1S(=O)(=O)c1ccccc1
5,150 to 155,CC(=O)OC1CCC2C3C(Sc4ccc(O)cc4)C(=O)c4cc(O)ccc4C3CCC12C (centres undefined)
6,180 to 195,O=S(=O)(Cl)c1ccccc1Cn1cncn1
7,45 to 46,CCCCCCCCCCOc1cc(OCCCCCCc2cccc(OCc3ccccc3)c2OCc2ccccc2)cc(C(=O)OC)c1
8,79 to 81,N#CC(C#N)=C1N(CCCN2CCc3ccccc3C2)CCN1CCN1CCCCC1
9,142 to 145,Cn1c(C(F)(F)F)c(C#N)c2ccc(Cl)cc21
10,111 to 113,CCC(C)(C)N1C(=O)C2(COc3cc4c(cc32)OCCO4)c2ccccc21 (centres undefined)
11,126 to 129,CCc1nc2c(c(C)c(C)n3nnnc23)n1CCOCCNS(=O)(=O)CCCCl
12,160 to 162,CCCCc1cn(CC(C)C)c(=O)n1Cc1ccc(-c2ccccc2-c2nnn[nH]2)nc1
13,185 to 186,O=C1CCc2ccc(Oc3ccc(CN4CCN(c5cccc(Cl)c5Cl)CC4)cc3)cc2N1
14,83 to 85,CC(=O)NC1CCN(Cc2ccccc2)C1 (centres undefined)
15,125 to 127,COC(=O)CCCc1cc2cc(Cl)ccc2n1S(=O)(=O)c1c(C)nn(C)c1C
16,> 250,COc1cc2ncc(C#N)c(Nc3cc(Cl)ccc3O)c2cc1OC
17,204 to 206,CCc1cc(OCc2ccc(-c3ccccc3-c3nnnn3-c3ccc([N+](=O)[O-])cc3)cc2)c2ccccc2n1
18,84 to 86,CC(C)c1ccc(-n2nc(C(F)(F)F)cc2-c2ccc(S(C)(=O)=O)cc2)cc1Cl
19,115 to 117,CCCCc1nc2c(N)nc3ccccc3c2n1CCCCON=C(C)C
20,243 to 245,COc1ccccc1Cc1n[nH]c2c1c(=O)n(-c1cccc(OC(F)(F)F)c1)c1ncccc21
21,124 to 126,COc1ccc(S(=O)(=O)N(CCC(F)(F)C(F)F)c2ccccc2/C=C/c2ccncc2)cc1
22,112,CC(C)(C)OC(=O)n1c([Si](C)(C)C)cc2cnccc21
23,228,O=C(Nc1cccc(S(=O)(=O)Nc2ccccc2)c1)c1cnn2c(C(F)F)cc(-c3ccc(C(F)(F)F)cc3)nc12
24,88 to 89,ClCc1ccc(-n2c3ccccc3c3ccccc32)cc1
25,60,CCOC(=O)c1n[nH]c(C(=O)OCC)c1C(O)c1ccc(Cl)cc1[N+](=O)[O-] (centres undefined)

# The remaining lines, values behind:
row,Structure (SMILES),melting point [°C]
1,CN(C)S(=O)(=O)Nc1ccc2[nH]cc(CC#N)c2c1,147 to 150
2,Cc1cc2cc(Nc3ccnc4cc(-c5ccc(CNCCCN(C)C)cc5)sc34)ccc2[nH]1,167
3,O=C(Nc1ccc2cn[nH]c2c1)C(=O)N1CCC(Cc2ccccc2)CC1,160 to 164
4,CC(C)(C)c1cc(=S)cc(C(C)(C)C)s1,162
5,Cc1ncc2n1-c1ccc(Br)cc1C(c1ccccn1)=NC2,189 to 190
6,Cc1c(Cl)cccc1S(=O)(=O)Nc1nc(C(C)(C)C)cs1,178
7,O=C(Cc1ccccc1)NCO,78
8,CC(C)n1nc(-c2cc(C(N)=O)cnc2-c2ccccc2)ccc1=O,229 to 230
9,CCC(C)CNc1cccc(-c2ccnc3c(C(=O)c4cccs4)cnn23)c1 (centres undefined),210 to 212
10,CC1(C)C(=O)Nc2cc3oc(-c4ccncc4)nc3cc21,336 to 338
11,O=[N+]([O-])c1ccc(Cl)c(F)c1O,73
12,CCCC1CCC(c2ccc(-c3cc(F)c(F)c(F)c3C=O)cc2)CC1 (centres undefined),62
13,N#Cc1ncn2c(C(F)(F)F)cc(-c3ccccc3Cl)nc12,180
14,C=CCOc1cccc(N2C(=O)C3=C(CCCC3)C2=O)c1,88 to 90
15,CCCCOc1ncc(I)cc1C(N)=S,140 to 148
16,Cc1cccc2c1N(CC(=O)C1CC1)C(=O)C(NC(=O)Nc1cccc(-c3nnn[nH]3)c1)N=C2C1CCCCC1 (centres undefined),227 to 233
17,CC(C)(C)OC(=O)Nc1cc(N2CC3OC(C)(C)OC3C2)c(-c2ccc(F)cc2)cc1[N+](=O)[O-] (centres undefined),119
18,CC(=O)NC[C@H]1CN(c2ccc3c(c2)CC(C)N3CCF)C(=O)O1 (some centres undefined),127 to 130
19,Nc1c(F)c(F)cc2c1c(=O)c(C(=O)O)cn2C1COC1,> 300
20,Cc1ccc(SC2CC(=O)N2CC(=O)NCCCCCCc2ccc(Cl)cc2)cc1 (centres undefined),63 to 65
21,COC(=O)C1=C(C)NC(C)=C(C(=O)OCCN2CCN(C(c3ccc(F)cc3)c3ccc(F)cc3)CC2)C1c1ccccc1[N+](=O)[O-] (centres undefined),90 to 93
22,CCCCCOc1ccc(-c2ccc(CC(=O)c3ccccc3)cc2)cc1,86

row,Structure (SMILES),melting point [°C]
1,COc1ccc2c(c1)C(=NOCCN1CCCC1)c1c-2cnc2ccccc12,85 to 86
2,COc1ccc(-c2ccc3c(c2)NC(=O)CC(c2cccc(-n4ccnc4)c2)=N3)cc1,207 to 208
3,CCON=C(CC)C1=C(O)CC(c2cccc3sccc23)CC1=O (centres undefined),76
4,COC(=O)c1ccc(OCCCCl)cc1,56.5 to 59
5,CN(C)C=CC(=O)C(=O)c1ccccc1,88
6,Cc1cccc2sc(-c3ccccn3)nc(=O)c12,151
7,C=C(CCCC(=O)N1CCC[C@@H](C(=O)OC(C)(C)C)N1)C(=O)O,86 to 88
8,Cc1oc(-c2ccccc2)nc1CCOc1ccc(CC2SC(=O)NC2=O)c2sccc12 (centres undefined),196 to 197
9,COc1ccc(-c2[nH]nc3c2C(=O)c2c(NC(=O)NNC(=O)c4ccc(O)c(O)c4)cccc2-3)cc1,> 300
10,COc1cc(C(=O)N2Cc3cccn3Cc3ccccc32)ccc1-c1ccccc1C(F)(F)F,146 to 148
11,CN(C)c1snc(OCC#CI)c1C#N,171 to 172
12,O=C(c1ccccc1)c1ccc(OC(=O)C2CC2)cc1,81 to 81.5
13,Fc1cc(C(c2cccc(Cl)c2)n2cncn2)c2ccccc2n1 (centres undefined),140
14,CCOC(=O)c1cc2c(nc(C)n2C)c2c1CCC1(Cc3ccccc3C1)N2,167 to 168
15,COC(=O)Nc1nc(-c2ccccc2)c(-c2nc3ccccc3c(=O)n2-c2cccc(C)c2)s1,268 to 269
16,COC(CN(C)C(=O)Nc1nnc(C(C)Oc2ccc(Cl)cc2)s1)OC (centres undefined),116 to 118
17,COc1ccc(C(C)CN2C=CC=C3C2=Nc2cc(OC)ccc2S(=O)(=O)N3C)cc1 (centres undefined),128 to 131
18,CCOC(=O)C1=C[C@@H](O)[C@H](NC(C)=O)[C@@H](NC(=O)OC(C)(C)C)C1,177 to 178
19,Oc1ccc(-c2c3ccccc3cc3sc4cc(O)ccc4c23)cc1,197 to 199
20,Fc1ccc(/C=C/c2nc(COc3cccc(CCCn4ccnn4)c3)co2)cc1,105 to 106
21,COc1cccc(C(CCN2CCN(Cc3cccc(F)c3)CC2)C2(O)CCCCC2)c1 (centres undefined),131 to 133

# — a melting point compilation (Tetko et al.; mined from patent text by program, amines drawn as free bases though some values may be those of a salt)
